This is an account of results in patent US20080161306A1, “Pyrrole Derivatives as Dna Gyrase and Topoisomerase Inhibitors” (priority 2005, published 2008).

What all share (assay type): cell-based
The test system of one assay is Streptococcus pneumoniae. Put plainly: Bacterial susceptibility testing in liquid media (MIC), Streptococcus pneumoniae. Conditions: lowest concentration reducing growth by 80% or more, 37 degrees C., 24 hrs; for MIC: Streptococcus pneumoniae. How it is done: (§1) Compounds were tested for antimicrobial activity by susceptibility testing in liquid media. Compounds were dissolved in dimethylsulfoxide and tested in 10 doubling dilutions in the susceptibility assays. The organisms used in the assay were grown overnight on suitable agar media and then suspended in a liquid medium appropriate for the growth of the organism. The suspension was a 0.5 McFarland and a further 1 in 10 dilution was made into the same liquid medium to prepare the final organism suspension in 100 μL. Plates were incubated under appropriate conditions at 37 degrees C. for 24 hrs prior to reading. The Minimum Inhibitory Concentration was determined as the lowest drug concentration able to reduce growth by 80% or more.

The subject of the next assay is SAU516. Put plainly: Bacterial susceptibility testing in liquid media (MIC), SAU516. Conditions: strain SAU516; lowest concentration reducing growth by 80% or more; 37 degrees C., 24 hrs. The procedure:
as §1

The subject of a further assay is HIN446. Put plainly: Bacterial susceptibility testing in liquid media (MIC), HIN446. Conditions: strain HIN446; lowest concentration reducing growth by 80% or more; 37 degrees C., 24 hrs. The procedure:
as §1

Where [1] appears, read: strain SPN548, read-out: MIC SPN548.

Values after ≈ are worked out from the molar mass of the structure shown. Read-outs that look alike come from different tables or passages of the source.

As to `Cc1[nH]c(C(=O)N[C@H]2CC[C@H](c3cccc(C(=O)O)c3)CC2)c(Cl)c1Cl` [Example 5, trans-3-(4-{[(3,4-Dichloro-5-methyl-1H-pyrrol-2-yl)carbonyl]amino}cyclohexyl)benzoic acid], the MIC – broadly, the lowest concentration found to suppress growth – in the assay with Streptococcus pneumoniae (setting [1]) is 4 µg/mL (≈ 10.1 µM); against SAU516, 4 µg/mL (≈ 10.1 µM); with HIN446 it was 16 µg/mL (≈ 40.5 µM).
For `CO[C@@H]1C=C(c2cccc(C(=O)O)c2)CC[C@@H]1NC(=O)c1[nH]c(C)c(Cl)c1Cl` (relative stereo) [Example 11, 3-((3,4-Cis)-4-{[(3,4-Dichloro-5-methyl-1H-pyrrol-2-yl)carbonyl]amino}-3-methoxycyclohex-1-en-1-yl)benzoic acid], the “MIC SPN548” value against Streptococcus pneumoniae (strain SPN548) stood at 0.13 µg/mL (≈ 0.307 µM). Also, in the assay with SAU516, the “MIC SAU516” value was 0.5 µg/mL (≈ 1.18 µM). Besides, the “MIC HIN446” value with HIN446 turned out to be 2 µg/mL (≈ 4.72 µM).
Consider `Cc1[nH]c(C(=O)NC2CC=C(c3cccc(C(=O)O)c3)CC2)c(Cl)c1Cl` (stereo not shown) [Example 16, 5-(4-{[(3,4-Dichloro-5-methyl-1H-pyrrol-2-yl)carbonyl]amino}cyclohex-1-en-1-yl)benzoic acid], for which the MIC in the assay with Streptococcus pneumoniae (read-out: MIC against Streptococcus pneumoniae) was 1 µg/mL (≈ 2.54 µM); in the assay on Streptococcus pneumoniae (setting [1]), 1 µg/mL (≈ 2.54 µM); with SAU516, 2 µg/mL (≈ 5.09 µM); against HIN446 it was 4 µg/mL (≈ 10.2 µM).
